Test results taken from patent US20210255193A1, “LYSINE REACTIVE PROBES AND USES THEREOF” (The Scripps Research Institute, priority 2017, published 2021).

What was measured:
Test in all cases: competitive isoTOP-ABPP
Format in all cases: binding
[1] = target: T1, MTOR Serine/threonine-protein kinase mTOR (Homo sapiens, UniProt P42345); conditions: 50 uM, 231 sol, in vitro; for R value (DMSO/fragment) for probe 1 labeling: P42345_K2066
T1 construct: isoTOP-ABPP experiments performed in cell lysates (in vitro); endogenous in cells; host or cells: soluble proteome of human cancer cell lines (MDA-MB-231; Ramos and Jurkat also prepared)
Outline: (§1)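 Probe: STP-alkyne, 0.1 mM, 1 h RT, after fragment pretreatment of lysate (esters 50 μM; guanidinylators 100 μM). Tags: light = compound, heavy = DMSO, via CuAAC. Replicates averaged if SD <60% of mean; otherwise lowest ratio used when any R <4.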

[2] = target: T2, KIAA1967 DBIRD complex subunit KIAA1967 (Homo sapiens, UniProt Q8N163); conditions: 50 uM, 231 sol, in vitro
T2 construct: isoTOP-ABPP experiments performed in cell lysates (in vitro); endogenous in cells; host or cells: soluble proteome of human cancer cell lines (MDA-MB-231; Ramos and Jurkat also prepared)
Outline: as §1

[3] = target: T3, POLR2L DNA-directed RNA polymerases I, II, and III subunit (Homo sapiens, UniProt P62875); conditions: 50 uM, 231 sol, in vitro; for R value (DMSO/fragment) for probe 1 labeling: P62875_K67
T3 construct: isoTOP-ABPP experiments performed in cell lysates (in vitro); endogenous in cells; host or cells: soluble proteome of human cancer cell lines (MDA-MB-231, Ramos, Jurkat)
Outline: as §1

[4] = target: T4, PFKM 6-phosphofructokinase, muscle type (Homo sapiens, UniProt P08237); conditions: 50 uM, 231 sol, in vitro; for R value (DMSO/fragment) for probe 1 labeling: P08237_K678
T4 construct: isoTOP-ABPP experiments performed in cell lysates (in vitro); endogenous in cells; host or cells: MDA-MB-231 soluble lysate
T4 sequence (P08237 1-780): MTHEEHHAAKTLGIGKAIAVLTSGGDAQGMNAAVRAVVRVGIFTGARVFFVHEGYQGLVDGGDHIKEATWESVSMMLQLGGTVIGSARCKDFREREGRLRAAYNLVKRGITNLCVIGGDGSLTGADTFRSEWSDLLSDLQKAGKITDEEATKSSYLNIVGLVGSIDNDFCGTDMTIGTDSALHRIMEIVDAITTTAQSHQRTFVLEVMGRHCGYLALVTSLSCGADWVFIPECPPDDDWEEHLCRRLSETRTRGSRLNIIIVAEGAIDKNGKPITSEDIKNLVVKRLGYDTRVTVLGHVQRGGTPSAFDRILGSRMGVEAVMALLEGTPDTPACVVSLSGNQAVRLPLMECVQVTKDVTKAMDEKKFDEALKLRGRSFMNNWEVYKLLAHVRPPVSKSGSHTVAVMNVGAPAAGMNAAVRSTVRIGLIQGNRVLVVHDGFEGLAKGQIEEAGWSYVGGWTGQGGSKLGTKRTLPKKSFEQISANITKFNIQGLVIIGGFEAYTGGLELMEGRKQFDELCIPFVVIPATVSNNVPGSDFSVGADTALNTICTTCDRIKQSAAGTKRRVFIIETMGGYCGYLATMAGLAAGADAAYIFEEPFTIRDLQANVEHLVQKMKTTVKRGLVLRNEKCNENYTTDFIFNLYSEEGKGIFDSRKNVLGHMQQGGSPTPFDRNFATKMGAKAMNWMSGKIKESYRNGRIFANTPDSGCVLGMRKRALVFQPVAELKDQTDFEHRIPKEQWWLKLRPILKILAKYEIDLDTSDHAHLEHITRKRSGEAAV
Outline: as §1

[5] = target: T5, GLUD1 Glutamate dehydrogenase 1, mitochondrial (Homo sapiens, UniProt P00367); conditions: 50 uM, 231 sol, in vitro; for R value (DMSO/fragment) for probe 1 labeling: P00367_K480
T5 construct: isoTOP-ABPP experiments performed in cell lysates (in vitro); endogenous in cells; host or cells: MDA-MB-231 soluble lysate
Outline: as §1

T2 sequence (Q8N163 whole entry, one chain of several): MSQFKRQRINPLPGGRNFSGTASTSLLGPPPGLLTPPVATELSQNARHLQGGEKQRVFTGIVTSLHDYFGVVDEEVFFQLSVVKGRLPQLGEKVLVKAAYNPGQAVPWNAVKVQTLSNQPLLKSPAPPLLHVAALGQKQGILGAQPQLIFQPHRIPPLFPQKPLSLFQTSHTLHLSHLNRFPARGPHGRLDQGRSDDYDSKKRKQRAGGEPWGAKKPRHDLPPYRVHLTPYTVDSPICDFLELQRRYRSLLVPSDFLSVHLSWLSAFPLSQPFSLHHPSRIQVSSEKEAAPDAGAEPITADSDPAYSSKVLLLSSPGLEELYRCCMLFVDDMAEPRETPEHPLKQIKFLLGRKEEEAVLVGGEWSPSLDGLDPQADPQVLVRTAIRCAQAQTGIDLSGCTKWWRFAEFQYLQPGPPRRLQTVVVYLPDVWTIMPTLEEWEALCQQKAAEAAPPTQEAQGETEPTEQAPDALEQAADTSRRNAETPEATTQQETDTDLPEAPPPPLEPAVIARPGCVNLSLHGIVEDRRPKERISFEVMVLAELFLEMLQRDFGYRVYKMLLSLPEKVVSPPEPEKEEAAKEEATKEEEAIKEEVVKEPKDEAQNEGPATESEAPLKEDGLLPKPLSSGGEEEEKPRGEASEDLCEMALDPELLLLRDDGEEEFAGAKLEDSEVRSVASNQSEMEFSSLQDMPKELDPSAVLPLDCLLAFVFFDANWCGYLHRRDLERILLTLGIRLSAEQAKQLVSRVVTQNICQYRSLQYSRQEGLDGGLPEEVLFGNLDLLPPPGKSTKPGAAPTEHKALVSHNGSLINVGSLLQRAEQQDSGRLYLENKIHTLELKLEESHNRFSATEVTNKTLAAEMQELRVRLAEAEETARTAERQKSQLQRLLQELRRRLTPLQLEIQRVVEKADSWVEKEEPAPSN
T5 sequence (P00367 54-558): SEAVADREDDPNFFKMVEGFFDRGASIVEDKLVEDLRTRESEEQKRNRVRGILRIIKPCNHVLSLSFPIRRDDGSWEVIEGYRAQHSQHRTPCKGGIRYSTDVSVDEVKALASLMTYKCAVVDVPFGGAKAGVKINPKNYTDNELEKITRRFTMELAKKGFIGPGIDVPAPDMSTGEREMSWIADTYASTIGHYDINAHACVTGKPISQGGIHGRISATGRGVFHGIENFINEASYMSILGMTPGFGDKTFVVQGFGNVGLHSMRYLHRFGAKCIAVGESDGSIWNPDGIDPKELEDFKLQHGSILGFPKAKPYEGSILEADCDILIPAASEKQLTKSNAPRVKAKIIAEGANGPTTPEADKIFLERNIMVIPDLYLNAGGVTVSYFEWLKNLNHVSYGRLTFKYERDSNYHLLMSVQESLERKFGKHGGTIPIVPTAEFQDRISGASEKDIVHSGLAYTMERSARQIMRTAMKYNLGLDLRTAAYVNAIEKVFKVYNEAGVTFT

| R value (DMSO/fragment) for probe 1 labeling [1] | R value (DMSO/fragment) for probe 1 labeling ([2]; Q8N163_K97) | R value (DMSO/fragment) for probe 1 labeling ([2]; Q8N163_K112) | R value (DMSO/fragment) for probe 1 labeling [3] | R value (DMSO/fragment) for probe 1 labeling [4] | R value (DMSO/fragment) for probe 1 labeling [5] | isoTOP-ABPP reactivity ratio at lysine P42345_K2066 [1] | isoTOP-ABPP reactivity ratio at lysine Q8N163_K97 [2] | isoTOP-ABPP reactivity ratio at lysine Q8N163_K112 [2] | isoTOP-ABPP reactivity ratio at lysine P62875_K67 [3] | isoTOP-ABPP reactivity ratio at lysine P08237_K678 [4] | isoTOP-ABPP reactivity ratio at lysine P00367_K480 [5] | Structure (SMILES) |
| --- | --- | --- | --- | --- | --- | --- | --- | --- | --- | --- | --- | --- |
| 0.7 | 0.7 | 1.0 | 0.8 | 0.9 | 1.2 |  |  |  |  |  |  | O=C(Oc1c(F)c(F)c(F)c(F)c1F)c1cc(C(F)(F)F)cc(C(F)(F)F)c1 [fragment 21, Pentafluorophenyl 3,5-bis(trifluoromethyl)benzoate] |
| 2.8 | 1.0 | 1.1 | 0.9 | 1.1 | 2.5 |  |  |  |  |  |  | Cn1cc(CC(=O)Oc2c(F)c(F)c(F)c(F)c2F)c2ccccc21 [fragment 22, Pentafluorophenyl 2-(1-methyl-1H-indol-3-yl)acetate] |
|  |  |  |  |  |  |  | 0.7 | 1.1 | 1.0 | 1.3 | 1.2 | O=C(Oc1c(F)c(F)c(F)c(F)c1F)c1ccc2ccccc2n1 [fragment 25, Pentafluorophenyl quinoline-2-carboxylate] |
|  |  |  |  |  |  | 2.8 | 0.9 | 1.1 | 1.1 | 1.4 | 1.6 | O=C(CCc1coc2cc(F)ccc2c1=O)Oc1c(F)c(F)c(F)c(F)c1F [fragment 26, Pentafluorophenyl 3-(7-fluoro-4-oxo-4H-chromen-3-yl)propanoate] |

Second part, the compound before the results:

| Structure (SMILES) | R value (DMSO/fragment) for probe 1 labeling [1] | R value (DMSO/fragment) for probe 1 labeling ([2]; Q8N163_K97) | R value (DMSO/fragment) for probe 1 labeling ([2]; Q8N163_K112) | R value (DMSO/fragment) for probe 1 labeling [3] | R value (DMSO/fragment) for probe 1 labeling [4] | R value (DMSO/fragment) for probe 1 labeling [5] | isoTOP-ABPP reactivity ratio at lysine P42345_K2066 [1] | isoTOP-ABPP reactivity ratio at lysine Q8N163_K97 [2] | isoTOP-ABPP reactivity ratio at lysine Q8N163_K112 [2] | isoTOP-ABPP reactivity ratio at lysine P62875_K67 [3] | isoTOP-ABPP reactivity ratio at lysine P08237_K678 [4] | isoTOP-ABPP reactivity ratio at lysine P00367_K480 [5] |
| --- | --- | --- | --- | --- | --- | --- | --- | --- | --- | --- | --- | --- |
| O=C(CCc1cn(-c2ccccc2)nc1-c1ccccc1)Oc1c(F)c(F)c(F)c(F)c1F [fragment 19, Pentafluorophenyl 3-(1,3-diphenyl-1H-pyrazol-4-yl)propanoate] | 0.9 | 0.9 | 1.2 | 1.0 | 1.0 | 1.0 |  |  |  |  |  |  |
| O=C(Oc1c(F)c(F)c(F)c(F)c1F)C(c1ccccc1)c1ccccc1 [fragment 20, Pentafluorophenyl 2,2-diphenylacetate] | 1.0 | 0.9 | 1.0 | 0.9 | 1.4 | 1.4 |  |  |  |  |  |  |
| COc1cc(CCC(=O)Oc2c(F)c(F)c(F)c(F)c2F)cc(OC)c1OC [fragment 23, Pentafluorophenyl 3-(3,4,5-trimethoxyphenyl)propanoate] | 1.1 | 0.8 | 1.1 | 1.1 | 1.0 | 1.8 |  |  |  |  |  |  |
| O=C(Oc1c(F)c(F)c(F)c(F)c1F)C1CCN(C(=O)OCc2ccccc2)CC1 [fragment 24, 1-Benzyl 4-(pentafluorophenyl) piperidine-1,4-dicarboxylate] |  |  |  |  |  |  | 1.0 | 0.9 | 1.0 | 0.9 | 1.1 | 2.0 |
